Results reported in patent publication US5719145A, “Amidine derivatives and platelet aggregation inhibitor containing the same” (Mitsui Toatsu Chemicals, Inc., priority 1996, dated 1998).
Where a name gives a salt, the structure may show the parent alone.

How the values were obtained:
[1] = target: T1, human fibrinogen receptor GP IIb/IIIa (Homo sapiens, UniProt P05106+P08514); assay: Binding inhibition of biotinylated fibrinogen to GP IIb/IIIa; conditions: purified human GP IIb/IIIa, read-out: Inhibition of GPIIb/IIIa . Fibrinogen Binding, IC50
T1 construct: Concentrated and lyophilized human platelet (20 vial) (Organon Teknika Co.) was lysed; tissue Organon Teknika Co; host or cells: human platelets (lyophilized), lysed in Triton X-100
Description: Experiment for binding inhibition between GP IIb/IIIa and fibrinogen
1. Purification of human fibrinogen receptor GP IIb/IIIa
Concentrated and lyophilized human platelet (20 vial) (Organon Teknika Co.) was lysed in an antienzymic solution (80 ml) (1% Triton X-100, 10 mM Tris-HCl, 150 mM NaCl, 1 mM CaCl2, 10 μM leupeptin, 1 mM phenylmethane sulfonyl fluoride, pH 7.4), allowed to incubate for an hour at 4° C., and centrifuged at 30,000×g for 15 minutes to recover the supernatant solution containing 150 mg of protein. The GP IIb/IIIa was purified according to the method of Phillips et al. [Methods in Enzymology Vol. 215, (J. J. Hawigar, Eds.), 244-263, Acedemic Press Inc., San Diego].
2. Preparation of biotinylated fibrinogen
Human fibrinogen Grade L (KABI Co.) was purified by using Shepharose CL-6B and Lysine-Sepharose. Thus purified human fibrinogen (2.3 mg/ml) was dialyzed for 3 hours with 0.1M aqueous sodium bicarbonate solution at room temperature and successively diluted to 1 mg/ml. To the solution (4.5 ml) obtained, NHC-LC-Biotin (2 mg) (Pierce Co.) was added and reacted for 1 hour at room temperature to biotinylate fibrinogen. The reaction mixture was dialyzed at 4° C. for 24 hours with TBS (20 mM Tris-HCl, 150 mM NaCl, 1 mM CaCl2, 1 mM MgCl2, pH 7.4) to obtain biotinylated fibrinogen.
3. Binding inhibition of biotinylated fibrinogen to GP IIb/IIIa
Specimen drugs were dissolved and diluted with TBS containing 1% BSA. To each solution, an equal volume of biotinylated fibrinogen (2 μg/ml) dissolved in TBS containing 1% BSA, was added. The inhibition percentage of specimen drugs were measured by the method of Mori et al. [Jpn. J. Thromb. Hemost., 2, 323-399 (1991) with small modification].
Purified GP IIb/IIIa was diluted to 1.5 μg/ml in TBS containing 0.0005% of Triton X-100. The GP IIb/IIIa solution was added to a 96 well microplate (E.I.A/R.I.A. Plate, Costar Co.) in a volume of 100 μl for each well, and incubated at 4° C. for 24 hours to immobilize GP IIb/IIIa. The microplate was washed twice with a washing solution (TBS containing 0.01% of Tween 20). Thereafter TBS containing 3.5% of BSA was added to each well in a volume of 200 μl and blocking was carried out for about an hour at room temperature. The microplate was further washed twice with the washing solution, and successively a mixture of the specimen drug and the biotinylated fibrinogen was added in a volume of 100 μl/well and incubated for 24 hours at room temperature. The microplate was thereafter washed five times, and peroxidase-labeled streptoavidin (a kit of Amersham Co.) which was previously diluted 3000 times with TBS was added in a volume of 100 μl/well and incubated for about 30 minutes at room temperature. After washing the microplate 5 times, a 0.05M phosphate-citrate buffer solution (pH5) containing o-phenylenediamine(0.4 mg/ml) (manufactured by Sigma Co.) and H2 O2 (0.012%) was added in a volume of 200 μl/well to develop color for 20-40 minutes. The reaction was stopped by addition of 0.3M sulfuric acid in a volume of 50 μl/well and absorbance at 490 nm was measured with Immunoreader NJ-200 (manufactured by Inter Med Co.). […]

[2] = system: guinea pig platelets (platelet-rich plasma); assay: In vitro inhibition of platelet aggregation in guinea pig (ADP-induced, PRP); assay type: cell-based; conditions: Cavia porcellus, ADP final concentration 5 μM, read-out: Platelet aggregation inhibitory activity in guinea pig, IC50
Description: In vitro experiment of platelet aggregation inhibition
1. Inhibition of platelet aggregation in Guinea pig
Blood of male guinea pig was collected with an injection syringe which contains 3.8 % sodium citrate as an anticoagulant in a ratio of 1 volume to 9 volumes of the blood. Successively, the collected blood mixture was subjected to centrifugation at 120×g for 15 minutes at room temperature to obtain platelet-rich plasma (PRP). An aliquot of PRP was further subjected to centrifugation at 1,200×g for 15 minutes to obtain platelet-poor plasma (PPP). Numbers of the platelet in PRP were measured with an automatic platelet counter: Sysmex PL-100 (manufactured by Toa Iyodenshi Co.) and PRP was diluted with PPP so as to adjust a platelet concentration to be about 300,000 particles/ μl. Platelet aggregation was measured by the following procedure with a 6 channel aggregometer: HEMA TRACER 1 (manufactured by NKK Co.).
(§1) After incubation of 240 μl of PRP at 37° C. for 2 minutes, 30 μl of the solvent of specimen as a control or of the specimen in various concentrations was added to PRP. Further 2 minutes later, 30 μl of adenosine diphosphate (final concentration: 5μM) was added to induce platelet aggregation. An inhibition percentage was obtained by comparing the maximum aggregation of the specimen drug group with that of control. […]

[3] = system: human platelets (platelet-rich plasma); assay: In vitro inhibition of platelet aggregation in human (ADP-induced, PRP); assay type: cell-based; conditions: ADP final concentration 5 μM, read-out: Platelet aggregation inhibitory activity in human, IC50
Description: 2. Inhibition of platelet aggregation in human
Blood was collected from healthy human volunteers with an injection syringe and mixed one volume of 3.8% of sodium citrate as an anticoagulant to 9 volumes of the blood. Successively, the obtained blood mixture was subjected to centrifugation at 120×g for 15 minutes at room temperature to obtain platelet-rich plasma (PRP). An aliquot of PRP was further subjected to centrifugation at 1,200×g for 20 minutes to obtain platelet-poor plasma (PPP). Numbers of the platelet were measured with an automatic platelet counter: Sysmex PL-100 (manufactured by Toa Iyodenshi Co.) and PRP was diluted with PPP so as to adjust a platelet concentration to be about 250,000 particles/μl. Platelet aggregation was measured by the following procedure with a 6 channel aggregometer: HEMA TRACER 1 (manufactured by NKK Co.)
as §1, with “or” for “or of”, “5 μM)” for “5μM)”

T1 sequence (P08514 32-887 limits assumed): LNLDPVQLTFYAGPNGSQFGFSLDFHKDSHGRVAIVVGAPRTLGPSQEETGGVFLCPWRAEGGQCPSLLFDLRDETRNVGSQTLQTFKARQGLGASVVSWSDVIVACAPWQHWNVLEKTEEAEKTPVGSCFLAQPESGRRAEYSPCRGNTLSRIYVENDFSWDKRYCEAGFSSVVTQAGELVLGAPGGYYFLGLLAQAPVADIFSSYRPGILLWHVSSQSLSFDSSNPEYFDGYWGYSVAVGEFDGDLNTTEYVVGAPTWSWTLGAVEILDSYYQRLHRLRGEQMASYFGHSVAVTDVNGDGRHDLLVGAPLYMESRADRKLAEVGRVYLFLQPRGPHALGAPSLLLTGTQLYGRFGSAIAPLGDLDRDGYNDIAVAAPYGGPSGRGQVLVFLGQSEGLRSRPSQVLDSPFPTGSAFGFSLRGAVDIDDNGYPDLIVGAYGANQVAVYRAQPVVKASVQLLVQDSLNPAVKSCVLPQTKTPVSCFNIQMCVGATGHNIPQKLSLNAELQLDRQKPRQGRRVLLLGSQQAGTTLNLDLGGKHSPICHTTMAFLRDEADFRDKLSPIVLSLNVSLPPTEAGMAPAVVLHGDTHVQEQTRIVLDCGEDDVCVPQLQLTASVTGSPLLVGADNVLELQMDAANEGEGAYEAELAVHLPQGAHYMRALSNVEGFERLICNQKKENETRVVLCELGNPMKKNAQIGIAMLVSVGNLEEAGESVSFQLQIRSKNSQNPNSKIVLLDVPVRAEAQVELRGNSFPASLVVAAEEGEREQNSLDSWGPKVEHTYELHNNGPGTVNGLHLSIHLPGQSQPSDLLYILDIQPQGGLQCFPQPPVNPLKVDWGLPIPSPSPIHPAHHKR
T1 sequence (P08514 891-1039 partner limits assumed): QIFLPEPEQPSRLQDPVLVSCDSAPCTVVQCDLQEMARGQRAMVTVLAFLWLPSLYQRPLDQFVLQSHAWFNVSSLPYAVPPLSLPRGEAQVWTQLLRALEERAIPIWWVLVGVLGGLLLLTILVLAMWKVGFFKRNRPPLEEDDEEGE
T1 sequence (P05106 27-788): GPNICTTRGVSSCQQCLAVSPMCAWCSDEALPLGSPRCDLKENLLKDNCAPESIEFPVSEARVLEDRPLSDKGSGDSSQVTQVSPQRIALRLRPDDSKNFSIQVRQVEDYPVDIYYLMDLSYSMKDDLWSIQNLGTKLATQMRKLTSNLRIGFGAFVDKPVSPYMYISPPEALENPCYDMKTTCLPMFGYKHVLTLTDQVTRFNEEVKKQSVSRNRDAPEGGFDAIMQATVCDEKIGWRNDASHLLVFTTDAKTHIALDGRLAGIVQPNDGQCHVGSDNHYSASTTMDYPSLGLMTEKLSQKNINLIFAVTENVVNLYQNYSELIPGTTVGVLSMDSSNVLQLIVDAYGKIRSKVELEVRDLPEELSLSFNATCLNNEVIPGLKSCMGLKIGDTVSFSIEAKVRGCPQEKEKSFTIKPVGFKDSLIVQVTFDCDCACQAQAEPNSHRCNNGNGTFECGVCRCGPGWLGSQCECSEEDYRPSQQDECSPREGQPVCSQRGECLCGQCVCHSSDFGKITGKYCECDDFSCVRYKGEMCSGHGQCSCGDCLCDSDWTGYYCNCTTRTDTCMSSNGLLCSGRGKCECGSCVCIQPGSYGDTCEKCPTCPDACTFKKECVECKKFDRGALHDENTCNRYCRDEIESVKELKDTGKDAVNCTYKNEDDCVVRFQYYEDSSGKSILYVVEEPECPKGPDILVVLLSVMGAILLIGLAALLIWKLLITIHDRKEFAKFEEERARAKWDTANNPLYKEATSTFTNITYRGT

SMILES | IC50 [1] [nM] | IC50 [2] [nM] | IC50 [3] [nM]
N=C(c1ccc(C(=O)Nc2ccc3c(c2)CC(CC(=O)O)CO3)cc1)N1CCOCC1 (single isomer, unassigned; (-)) [Example 52, (-)-6-[[4-(morpholinoiminomethyl)benzoyl]amino]chroman-3-acetic acid hydrochloride] | 0.13 | 110 | 35
C#CCNC(=N)c1ccc(C(=O)Nc2ccc3c(c2)CC(CC(=O)O)CC3)cc1 (single isomer, unassigned; (-)) [Example 46, (-)-7-[[4-(N^2-propargylamidino)benzoyl]amino]-1,2,3,4-tetrahydronaphthalene-2-acetic acid hydrochloride] | 0.11 | 150 | 29
N=C(c1ccc(C(=O)Nc2ccc3c(c2)CC(CC(=O)O)CC3)cc1)N1CCSCC1 (stereo not drawn) [Example 13, 7-[[4-(thiomorpholinoiminomethyl)benzoyl]amino]-1,2,3,4-tetrahydronaphthalene-2-acetic acid hydrochloride] | 0.28 | 170 | 60
N=C(c1ccc(C(=O)Nc2ccc3c(c2)CC(CC(=O)O)CC3)cc1)N1CCOCC1 (stereo not drawn) [Example 2, 7-[[4-(morpholinoiminomethyl)benzoyl]amino]-1,2,3,4-tetrahydronaphthalene-2-acetic acid hydrochloride] | 0.13 | 140 | 68
C#CCNC(=N)c1ccc(C(=O)Nc2ccc3c(c2)CC(CC(=O)O)CO3)cc1 (single isomer, unassigned; (-)) [Example 50, (-)-6-[[4-(N^2-propargylamidino)benzoyl]amino]chroman-3-acetic acid hydrochloride] | 0.22 | 200 | 44
N=C(c1ccc(C(=O)Nc2ccc3c(c2)CC(CC(=O)O)CC3)cc1)N1CCOCC1 (single isomer, unassigned; (-)) [Example 48, (-)-7-[[4-(morpholinoiminomethyl)benzoyl]amino]-1,2,3,4-tetrahydronaphthalene-2-acetic acid hydrochloride] | 0.07 | 69 | 33
